Experimental data reported in US20130045988A1, “COMBINATION THERAPY” (SHIRE AG, priority 2011, published 2013).
Several values for one entry are separate records, joined by “and”; a condition that tells them apart may be missing. Equal entries are not always repeated. Entries after “also recorded” stand apart in the source; their conditions may differ. Where two headings read alike, the source gives them in different places.

Legend:
[1] = system: cholinergic neurons innervating pig gastric circular muscle; assay: EFS-induced acetylcholine release (total radioactivity/tritium outflow) from pig gastric circular muscle strips
[2] = system: pig gastric circular muscle strips; assay: EFS-induced submaximal cholinergic contractions of gastric circular muscle strips
[3] = system: pig colon descendens circular muscle; assay: EFS-induced submaximal cholinergic contractions of colon circular muscle strips; settings: for effect on EFS-induced cholinergic contractions: cumulative half log unit increasing concentrations, IBMX effect range 1-30 μM; for influence on the facilitating effect of prucalopride on cholinergic neurotransmission: PDE inhibitor before prucalopride, data not shown
Experimental: Young male pigs (10-12 weeks, 15-25 kg-breed Line 36) were obtained from […], Belgium. On the morning of the experiment, pigs were anaesthetized with an intramuscular injection of 5 ml Zoletil 100 (containing 50 mg/ml tiletamine and 50 mg/ml zolazepam; Virbac Belgium S.A., Belgium). […] The aerated (5% CO2/95% O2) Krebs-Henseleit solution in the organ baths (see example 11) systematically contained 4 μM of the noradrenergic neuron blocker guanethidine and 0.3 mM of the NO synthase inhibitor Nω-nitro-L-arginine methyl ester hydrochloride (L-NAME) to avoid noradrenergic and […] responses respectively. After 60 min of stabilization with refreshing of the Krebs-Henseleit solution every 15 min, strips were contracted with the muscarinic receptor agonist carbachol (3 μM). This procedure was repeated with a 20-min washout period in between. […] NK3, 0.3 μM SB222200) were added and incubated for 30 min before the first electrical stimulation. […] Strips were then stimulated for 1 hour (12 stimulations) with 5 min interval at supramaximal voltage (35 V) (10 s trains; 0.25 ms pulse duration; frequency of 4 Hz). […] The protocols as described in examples 12 and 13 then started. […] Changes in isometric tension were measured using MLT 050/D force transducers (ADInstruments, United Kingdom) and recorded on a PowerLab/8sp data recording system (ADInstruments, United Kingdom) with Chart v5.5.6 software. The obtained data were analysed as follows: […] Results are expressed as means±S.E.M., n referring to tissues from different animals except when otherwise indicated. Statistical analysis was performed by use of Graphpad Prism […]<0.05 was considered statistically significant. When adding PDE inhibitors cumulatively, the last contraction in the presence of each concentration was compared to the reference by repeated measures ANOVA followed by a Bonferroni corrected t-test. […] A cumulative concentration-response curve for the different PDE inhibitors was obtained by adding them in half log unit increasing concentrations, starting after 5 reproducible contractions at V50% had been obtained and registering the responses to 6 trains (30 min) after adding each concentration. Parallel to the cumulative concentration-response curve of rolipram, an isolated concentration-response curve was obtained by adding one single concentration per tissue in 3 animals. […] The solvents DMSO and ethanol were tested separately by adding them cumulatively in the matching dilutions as for the cumulative concentration series of the corresponding PDE inhibitor.

[4] = system: PDE; settings: Beavo and Reifsnyder, 1990; read-out: IC50 range; cited from earlier work
[5] = prucalopride 0.03, 0.1 or 0.3 μM

SMILES: CN(C(=O)CCCOc1ccc2[nH]c(=O)ccc2c1)C1CCCCC1 [cilostamide]
- influence on basal tritium outflow ([1]; PDE inhibitor alone, 1 μM): None of these PDE-inhibitors alone influenced basal tritium outflow
- contraction at the 10th stimulation train, % of the response before ([2]; 1 μM cilostamide alone): 59±13%
- activity at 3 µM ([2]; Sus scrofa, 3 μM cilostamide, maximal depression, read-out: EFS-induced contraction, reduction to % of response before PDE-inhibitor): 68 ± 11%
- influence on submaximal cholinergic contractions ([2]; cilostamide 0.01-10 μM): reduced the contractions from 0.1 μM onwards
- potency versus IBMX in inhibiting EFS-induced cholinergic contractions [3]: about 100 times
- inhibition at 0.03 µM ([3]; Sus scrofa, 0.03 μM cilostamide): 75%
- effect on EFS-induced cholinergic contractions [3]: concentration-dependently inhibited EFS-induced cholinergic contractions

SMILES: CC(C)Cn1c(=O)n(C)c(=O)c2[nH]cnc21 [IBMX, 3-isobutyl-1-methyl-xanthine]
- influence on EFS-induced tritium outflow ([1]; IBMX 10 μM alone): nor did it influence EFS-induced tritium outflow; also recorded: did not significantly influence EFS-induced tritium outflow
- influence on basal tritium outflow ([1]; PDE inhibitor alone, 10 μM): did not influence basal
- EFS-induced contractions decreased maximally to % of response before ([2]; 3 μM IBMX, piglets): 84±2%
- effect on EFS-induced cholinergic contractions ([2]; 30 μM IBMX): nearly abolished
- effect on amplitude of the EFS-induced cholinergic contractions ([2]; IBMX, half log unit ascending concentrations): concentration-dependent reduction of the amplitude of the EFS-induced cholinergic contractions from 3 μM onwards
- effect on EFS-induced cholinergic contractions [3]: concentration-dependently inhibited EFS-induced cholinergic contractions
- IC50 [4]: 2 to 50 µM

SMILES: CCOC(=O)C1=C[C@]2(CC)CCCN3CCc4c(n1c1ccccc41)[C@@H]32 [vinpocetine]
- influence on basal tritium outflow ([1]; PDE inhibitor alone, 10 μM): None of these PDE-inhibitors alone influenced basal tritium outflow
- influence on submaximal cholinergic contractions ([2]; vinpocetine 0.01-10 μM): did not significantly influence the submaximal cholinergic contractions
- influence on the facilitating effect of prucalopride on cholinergic neurotransmission [3]: did not influence the facilitating effect of prucalopride on cholinergic neurotransmission

SMILES: O=C(Nc1c(Cl)cncc1Cl)c1ccc(OC(F)F)c(OCC2CC2)c1 [roflumilast]
- S2/S1 ratio of EFS-induced total radioactivity outflow ([1]; 0.3 μM roflumilast alone, 36 min before S2): 0.85±0.02

SMILES: CC(C)n1c(=O)c(C(=O)N[C@H]2C[C@H]3CC[C@@H](C2)N3C[C@@H](O)CN(C)S(C)(=O)=O)cc2ccccc21 [velusetrag]
- S2/S1 ratio of EFS-induced total radioactivity outflow [1]: 0.7±0.03

SMILES: NC1=N[C@H](O)[C@H]2[C@H]3O[C@]4(O)O[C@@H]([C@@H](O)[C@@]2(N1)[C@@H]4O)[C@]3(O)CO [tetrodotoxin]
- effect on EFS-induced contractions at V50% C [2]: abolished

SMILES: COc1ccc(C2CNC(=O)C2)cc1OC1CCCC1 (centres unmarked) [rolipram]
- influence on basal tritium outflow ([1]; PDE inhibitor alone, 1 μM): None of these PDE-inhibitors alone influenced basal tritium outflow
- mean contractile response to the 10th stimulation train, % of response before administration ([2]; 1 μM rolipram alone, before adding prucalopride, three tissue groups): 114±8% and 115±8% and 122±9%
- individual contractile response to the 10th stimulation, % of response before administration ([2]; 1 μM rolipram alone, single tissues of the group later given 0.03 μM prucalopride): 96% and 111% and 137% and 155% and 93% and 102% and 101% and 128%
- influence on submaximal cholinergic contractions ([2]; 1-30 μM): did not significantly influence the submaximal cholinergic contractions
- effect on EFS-induced contractions ([3]; 3 μM rolipram, before prucalopride is added): did not enhanced the EFS-induced contractions
- effect on EFS-induced contractions ([3]; 0.1 and 0.3 μM rolipram): significant increase of the EFS-induced contractions

SMILES: COCCCN1CCC(NC(=O)c2cc(Cl)c(N)c3c2OCC3)CC1 [prucalopride, 4-amino-5-chloro-2,3-di-hydro-N-[r-(3-methoxypropyl)-4-piperidinyl]-7-benzo-furan-carboxamide]
- S1, EFS-induced outflow of total radioactivity above baseline [1]: 68328 ± 11006 dpm g^−1 tissue and 91698 ± 24563 dpm g^−1 tissue and 61343 ± 11445 dpm g^−1 tissue and 50543 ± 3791 dpm g^−1 tissue
- S2, EFS-induced outflow of total radioactivity above baseline ([1]; 0.03 μM prucalopride added 15 min before S2): 62398 ± 8272 dpm g^−1 tissue
- influence on EFS-induced tritium outflow ([1]; 0.03 μM prucalopride alone): enhanced EFS-induced tritium outflow
- S2, EFS-induced outflow of total radioactivity above baseline ([1]; 0.1 μM prucalopride added 15 min before S2): 91877 ± 21668 dpm g^−1 tissue
- S2, EFS-induced outflow of total radioactivity above baseline ([1]; 0.3 μM prucalopride added 15 min before S2): 61498 ± 9813 dpm g^−1 tissue and 52591 ± 2950 dpm g^−1 tissue
- influence on basal tritium outflow ([1]; prucalopride 0.03, 0.1 and 0.3 μM): did not influence the basal outflow
- electrically induced contractions, % of mean of 5 contractions before ([2]; 0.01 μM prucalopride alone): 162±11%
- electrically induced contractions, % of mean of 5 contractions before ([2]; 0.03 μM prucalopride alone): 171±15%
- electrically induced contractions, % of mean of 5 contractions before ([2]; 0.1 μM prucalopride alone): 206±10%
- effect on amplitude of the EFS-induced contractions [2, 5]: progressively enhanced the amplitude of the EFS-induced contractions
- influence on basal tone of the strips [2, 5]: did not influence the basal tone of the strips
- effect on EFS-induced cholinergic submaximal contractions ([3]; 1 μM prucalopride): systematically enhanced EFS-induced cholinergic submaximal contractions

SMILES: Cn1cc(C(=O)OCC2CCN(CCNS(C)(=O)=O)CC2)c2ccccc21 [GR113808]
- S2, EFS-induced outflow of total radioactivity above baseline ([1]; 1 nM GR113808 added 21 min before 0.3 μM prucalopride): 43860 ± 4122 dpm g^−1 tissue
- S2/S1 ratio of EFS-induced total radioactivity outflow ([1]; 1 nM GR113808 followed by 0.3 μM prucalopride): 1.05 ± 0.08
- S2, EFS-induced outflow of total radioactivity above baseline ([1]; 10 nM GR113808 added 21 min before 0.3 μM prucalopride): 39273 ± 9533 dpm g^−1 tissue
- S2/S1 ratio of EFS-induced total radioactivity outflow ([1]; 10 nM GR113808 followed by 0.3 μM prucalopride): 0.86 ± 0.04
- S2, EFS-induced outflow of total radioactivity above baseline ([1]; 100 nM GR113808 added 21 min before 0.3 μM prucalopride): 47590 ± 8293 dpm g^−1 tissue
- S2/S1 ratio of EFS-induced total radioactivity outflow ([1]; 100 nM GR113808 followed by 0.3 μM prucalopride): 0.74 ± 0.05
- influence on basal tritium outflow ([1]; GR113808 1, 10, 100 nM): did not influence basal tritium outflow
- influence on the facilitating effect of prucalopride on EFS-induced acetylcholine release ([1]; GR113808 1, 10, 100 nM versus 0.3 μM prucalopride): concentration-dependently antagonized the facilitating effect of 0.3 μM prucalopride
- S1, EFS-induced outflow of total radioactivity above baseline ([1]; first stimulation S1, before drugs, tissues given 1 nM GR113808 then 0.3 μM prucalopride): 42314 ± 3744 dpm g^−1 tissue
- S1, EFS-induced outflow of total radioactivity above baseline ([1]; first stimulation S1, before drugs, tissues given 10 nM GR113808 then 0.3 μM prucalopride): 45180 ± 10235 dpm g^−1 tissue
- S1, EFS-induced outflow of total radioactivity above baseline ([1]; first stimulation S1, before drugs, tissues given 100 nM GR113808 then 0.3 μM prucalopride): 49850 ± 8210 dpm g^−1 tissue
- influence per se on EFS-induced contractions ([2]; GR113808 1, 10 and 100 nM): did not influence the EFS-induced contractions
- influence on the facilitating effect of prucalopride on EFS-induced contractions ([2]; GR113808 1, 10 and 100 nM versus 0.3 μM prucalopride): concentration-dependently inhibited the facilitating effect of 0.3 μM prucalopride

SMILES: CN1[C@@H]2CC[C@H]1C[C@@H](OC(=O)C(CO)c1ccccc1)C2 (some centres unmarked) [atropine]
- effect on EFS-induced contractions at V50% C [2]: abolished

SMILES: CCCCCC[C@@H]([C@@H](C)O)n1cnc2c(N)ncnc21 (racemic) [EHNA]
- S2/S1 ratio of EFS-induced total radioactivity outflow ([1]; 10 μM EHNA alone): 0.51±0.05
- influence on basal tritium outflow ([1]; PDE inhibitor alone, 10 μM): did not influence basal
- influence on submaximal cholinergic contractions ([2]; 1-30 μM): did not significantly influence the submaximal cholinergic contractions
- influence on the facilitating effect of prucalopride on cholinergic neurotransmission [3]: did not influence the facilitating effect of prucalopride on cholinergic neurotransmission
